Experimental data: patent US20240360177A1, “PEPTIDES WITH ANTIMICROBIAL ACTIVITIES” (priority 2021, published 2024)
Converted amounts (≈) assume the structure as drawn. Read-outs that look alike come from different tables or passages of the source. Starred links: 1 amine or outer side, 2 acyl side, 3 side chain; linkers in the order of their positions; H or OH if unused. Non-standard residues stand in square brackets, D forms with d. Residues, ends and D or L forms follow the SMILES beside them. *: point of attachment. Cyclohexanecarbonyl = O=C(C1CCCCC1)*; Morpholinoacetyl = O=C(CN1CCOCC1)*; 4Pal = N[C@@H](Cc1ccncc1)C(=O)O; NH(4-F-phenyl) = Fc1ccc(N*)cc1; hLeu = CC(C)CC[C@H](N)C(=O)O; CO = O=C([*:1])[*:2]; AEA = NCCOCC(=O)O; Ava = NCCCCC(=O)O; Ms = CS(=O)(=O)*

## N=C(N)NCCC[C@@H](N)C(=O)N[C@@H](CCCNC(=N)N)C(=O)N[C@H](CCCNC(=N)N)C(=O)NCCCCC(=O)N[C@H](CCCNC(=N)N)C(=O)N[C@@H](CCCNC(=N)N)C(=O)N[C@H](CCCNC(=N)N)C(=O)NCCCCC(=O)N[C@H](CCCNC(=N)N)C(=O)N[C@@H](CCCNC(=N)N)C(=O)N[C@H](CCCNC(=N)N)C(=O)N[C@@H](CCCNC(=N)N)C(=O)NCCCCC(=O)N[C@H](CCCNC(=N)N)C(=O)N[C@@H](CCCNC(=N)N)C(=O)N[C@H](CCCNC(=N)N)C(=O)N[C@@H](CCCNC(=N)N)C(=O)N[C@@H](CCC(=O)O)C(=O)O [SEQ ID NO: 20, rRr-(Ava)-rRr-(Ava)-rRrR-(Ava)-rRrR-Glu] (H-[dR]R[dR][Ava][dR]R[dR][Ava][dR]R[dR]R[Ava][dR]R[dR]RE-OH)
C. glabrata; ATCC 90030, 24 hrs
  MIC C. glabrata: 1 µg/mL (≈ 0.38 µM)
C. tropicalis; ATCC 90874, 24 hrs
  MIC C. tropicalis: 0.5 µg/mL (≈ 0.19 µM)
C. dubliniensis; ATCC MYA-578, 24 hrs
  MIC C. dubliniensis: 0.5 µg/mL (≈ 0.19 µM)
C. krusei; MMX 7135, 24 hrs
  MIC C. krusei: 2 µg/mL (≈ 0.76 µM)
C. parapsilosis; ATCC 22019, 24 hrs
  MIC C. parapsilosis: 0.25 µg/mL (≈ 0.095 µM)
C. auris; CDC 386, 24 hrs
  MIC C. auris: 16 µg/mL (≈ 6.08 µM)
C. albicans; ATCC 90028 or 90029, 24 hrs
  MIC C. albicans: 0.5 µg/mL (≈ 0.19 µM)

## rRr-(Igl)-rRr-(Igl)-rRrR-(Igl)-rRrR-NH2 [SEQ ID NO: 75]
C. glabrata
  MIC C. glabrata: 0.5 µg/mL
C. tropicalis
  MIC C. tropicalis: 0.5 µg/mL
C. dubliniensis
  MIC C. dubliniensis: 0.5 µg/mL
C. krusei
  MIC C. krusei: 0.5 µg/mL
C. parapsilosis
  MIC C. parapsilosis: 0.5 µg/mL
C. auris
  MIC C. auris: 0.5 µg/mL
C. albicans
  MIC C. albicans: 0.5 µg/mL

## CS(=O)(=O)N[C@H](CCCNC(=N)N)C(=O)N[C@@H](CCCNC(=N)N)C(=O)N[C@H](CCCNC(=N)N)C(=O)N1CCC[C@H]1C(=O)N[C@H](CCCNC(=N)N)C(=O)N[C@@H](CCCNC(=N)N)C(=O)N[C@H](CCCNC(=N)N)C(=O)N1CCC[C@H]1C(=O)N[C@H](CCCNC(=N)N)C(=O)N[C@@H](CCCNC(=N)N)C(=O)N[C@H](CCCNC(=N)N)C(=O)N[C@@H](CCCNC(=N)N)C(=O)N1CCC[C@H]1C(=O)N[C@H](CCCNC(=N)N)C(=O)N[C@@H](CCCNC(=N)N)C(=O)N[C@H](CCCNC(=N)N)C(=O)N[C@@H](CCCNC(=N)N)C(N)=O [SEQ ID NO: 56, CH3SO2NH-rRr-P-rRr-P-rRrR-P-rRrR-NH2] (Ms-[dR]R[dR]P[dR]R[dR]P[dR]R[dR]RP[dR]R[dR]R-NH2)
C. glabrata; 24 h
  MIC C. glabrata: 0.5 µg/mL (≈ 0.194 µM)
C. tropicalis; 24 h
  MIC C. tropicalis: 0.5 µg/mL (≈ 0.194 µM)
C. dubliniensis; 24 h
  MIC C. dubliniensis: 0.5 µg/mL (≈ 0.194 µM)
C. krusei; 24 h
  MIC C. krusei: 1 µg/mL (≈ 0.389 µM)
C. parapsilosis; 24 h
  MIC C. parapsilosis: 0.25 µg/mL (≈ 0.0972 µM)
C. auris; 24 h
  MIC C. auris: 0.5 µg/mL (≈ 0.194 µM)
C. albicans; 24 h
  MIC C. albicans: 0.5 µg/mL (≈ 0.194 µM)

## CC(C)CC[C@H](N)C(=O)N[C@@H](CCCNC(=N)N)C(=O)N[C@H](CCCNC(=N)N)C(=O)N1CCC[C@H]1C(=O)N[C@H](CCCNC(=N)N)C(=O)N[C@@H](CCCNC(=N)N)C(=O)N[C@H](CCCNC(=N)N)C(=O)N1CCC[C@H]1C(=O)N[C@H](CCCNC(=N)N)C(=O)N[C@@H](CCCNC(=N)N)C(=O)N[C@H](CCCNC(=N)N)C(=O)N[C@@H](CCCNC(=N)N)C(=O)N1CCC[C@H]1C(=O)N[C@H](CCCNC(=N)N)C(=O)N[C@@H](CCCNC(=N)N)C(=O)N[C@H](CCCNC(=N)N)C(=O)N[C@@H](CCCNC(=N)N)C(N)=O [SEQ ID NO: 94, (hLeu)Rr-P-rRr-P-rRrR-P-rRrR-NH2] (H-[hLeu]R[dR]P[dR]R[dR]P[dR]R[dR]RP[dR]R[dR]R-NH2)
C. glabrata; 24 h
  MIC C. glabrata: 0.5 µg/mL (≈ 0.203 µM)
C. tropicalis; 24 h
  MIC C. tropicalis: 0.5 µg/mL (≈ 0.203 µM)
C. dubliniensis; 24 h
  MIC C. dubliniensis: 0.5 µg/mL (≈ 0.203 µM)
C. krusei; 24 h
  MIC C. krusei: 1 µg/mL (≈ 0.406 µM)
C. parapsilosis; 24 h
  MIC C. parapsilosis: 0.25 µg/mL (≈ 0.101 µM)
C. auris; 24 h
  MIC C. auris: 1 µg/mL (≈ 0.406 µM)
C. albicans; 24 h
  MIC C. albicans: 0.5 µg/mL (≈ 0.203 µM)

## N=C(N)NCCC[C@H](NC(=O)[C@@H](CCCNC(=N)N)NC(=O)[C@H](CCCNC(=N)N)NC(=O)[C@@H](CCCNC(=N)N)NC(=O)[C@@H]1CCCN1C(=O)[C@H](CCCNC(=N)N)NC(=O)[C@@H](CCCNC(=N)N)NC(=O)[C@H](CCCNC(=N)N)NC(=O)[C@@H](CCCNC(=N)N)NC(=O)[C@@H]1CCCN1C(=O)[C@@H](CCCNC(=N)N)NC(=O)[C@H](CCCNC(=N)N)NC(=O)[C@@H](CCCNC(=N)N)NC(=O)[C@@H]1CCCN1C(=O)[C@@H](CCCNC(=N)N)NC(=O)[C@H](CCCNC(=N)N)NC(=O)[C@@H](CCCNC(=N)N)NC(=O)CN1CCOCC1)C(N)=O [SEQ ID NO: 59, MorpholineCH2C(O)NH-rRr-P-rRr-P-rRrR-P-rRrR-NH2] (Morpholinoacetyl-[dR]R[dR]P[dR]R[dR]P[dR]R[dR]RP[dR]R[dR]R-NH2)
C. glabrata; 24 h
  MIC C. glabrata: 0.5 µg/mL (≈ 0.191 µM)
C. tropicalis; 24 h
  MIC C. tropicalis: 0.5 µg/mL (≈ 0.191 µM)
C. dubliniensis; 24 h
  MIC C. dubliniensis: 0.5 µg/mL (≈ 0.191 µM)
C. krusei; 24 h
  MIC C. krusei: 2 µg/mL (≈ 0.763 µM)
C. parapsilosis; 24 h
  MIC C. parapsilosis: 0.5 µg/mL (≈ 0.191 µM)
C. auris; 24 h
  MIC C. auris: 4 µg/mL (≈ 1.53 µM)
C. albicans; 24 h
  MIC C. albicans: 0.5 µg/mL (≈ 0.191 µM)

## N=C(N)NCCC[C@@H](N)C(=O)N[C@@H](CCCNC(=N)N)C(=O)N[C@@H](Cc1ccncc1)C(=O)N[C@H](CCCNC(=N)N)C(=O)N[C@@H](CCCNC(=N)N)C(=O)N[C@@H](Cc1ccncc1)C(=O)N[C@H](CCCNC(=N)N)C(=O)N[C@@H](CCCNC(=N)N)C(=O)N[C@H](CCCNC(=N)N)C(=O)N[C@@H](Cc1ccncc1)C(=O)N[C@H](CCCNC(=N)N)C(=O)N[C@@H](CCCNC(=N)N)C(=O)N[C@H](CCCNC(=N)N)C(N)=O [SEQ ID NO: 78, rR-(4-PyrAla)-rR-(4-PyrAla)-rRr-(4-PyrAla)-rRr-NH2] (H-[dR]R[4Pal][dR]R[4Pal][dR]R[dR][4Pal][dR]R[dR]-NH2)
C. glabrata; 24 h
  MIC C. glabrata: 0.5 µg/mL (≈ 0.247 µM)
C. tropicalis; 24 h
  MIC C. tropicalis: 0.5 µg/mL (≈ 0.247 µM)
C. dubliniensis; 24 h
  MIC C. dubliniensis: 0.25 µg/mL (≈ 0.124 µM)
C. krusei; 24 h
  MIC C. krusei: 1 µg/mL (≈ 0.494 µM)
C. parapsilosis; 24 h
  MIC C. parapsilosis: 0.25 µg/mL (≈ 0.124 µM)
C. auris; 24 h
  MIC C. auris: 16 µg/mL (≈ 7.91 µM)
C. albicans; 24 h
  MIC C. albicans: 0.5 µg/mL (≈ 0.247 µM)

## N=C(N)NCCC[C@H](NC(=O)[C@@H](CCCNC(=N)N)NC(=O)[C@H](CCCNC(=N)N)NC(=O)[C@@H](CCCNC(=N)N)NC(=O)[C@@H]1CCCN1C(=O)[C@H](CCCNC(=N)N)NC(=O)[C@@H](CCCNC(=N)N)NC(=O)[C@H](CCCNC(=N)N)NC(=O)[C@@H](CCCNC(=N)N)NC(=O)[C@@H]1CCCN1C(=O)[C@@H](CCCNC(=N)N)NC(=O)[C@H](CCCNC(=N)N)NC(=O)[C@@H](CCCNC(=N)N)NC(=O)[C@@H]1CCCN1C(=O)[C@@H](CCCNC(=N)N)NC(=O)[C@H](CCCNC(=N)N)NC(=O)[C@@H](CCCNC(=N)N)NC(=O)C1CCCCC1)C(N)=O [SEQ ID NO: 58, cHexC(O)NH-rRr-P-rRr-P-rRrR-P-rRrR-NH2] (Cyclohexanecarbonyl-[dR]R[dR]P[dR]R[dR]P[dR]R[dR]RP[dR]R[dR]R-NH2; N-terminus and C-terminus assumed)
C. glabrata; 24 h
  MIC C. glabrata: 1 µg/mL (≈ 0.384 µM)
C. tropicalis; 24 h
  MIC C. tropicalis: 1 µg/mL (≈ 0.384 µM)
C. dubliniensis; 24 h
  MIC C. dubliniensis: 0.5 µg/mL (≈ 0.192 µM)
C. krusei; 24 h
  MIC C. krusei: 2 µg/mL (≈ 0.768 µM)
C. parapsilosis; 24 h
  MIC C. parapsilosis: 0.5 µg/mL (≈ 0.192 µM)
C. auris; 24 h
  MIC C. auris: 1 µg/mL (≈ 0.384 µM)
C. albicans; 24 h
  MIC C. albicans: 1 µg/mL (≈ 0.384 µM)

## N=C(N)NCCC[C@@H](N)C(=O)N[C@@H](CCCNC(=N)N)C(=O)N[C@H](CCCNC(=N)N)C(=O)NCCOCC(=O)N[C@H](CCCNC(=N)N)C(=O)N[C@@H](CCCNC(=N)N)C(=O)N[C@H](CCCNC(=N)N)C(=O)NCCOCC(=O)N[C@H](CCCNC(=N)N)C(=O)N[C@@H](CCCNC(=N)N)C(=O)N[C@H](CCCNC(=N)N)C(=O)N[C@@H](CCCNC(=N)N)C(=O)NCCOCC(=O)N[C@H](CCCNC(=N)N)C(=O)N[C@@H](CCCNC(=N)N)C(=O)N[C@H](CCCNC(=N)N)C(=O)N[C@@H](CCCNC(=N)N)C(N)=O [SEQ ID NO: 52, rRr-(Aea)-rRr-(Aea)-rRrR-(Aea)-rRrR-NH2] (H-[dR]R[dR][AEA][dR]R[dR][AEA][dR]R[dR]R[AEA][dR]R[dR]R-NH2)
C. glabrata; 24 h
  MIC C. glabrata: 0.5 µg/mL (≈ 0.199 µM)
C. tropicalis; 24 h
  MIC C. tropicalis: 0.5 µg/mL (≈ 0.199 µM)
C. dubliniensis; 24 h
  MIC C. dubliniensis: 0.5 µg/mL (≈ 0.199 µM)
C. krusei; 24 h
  MIC C. krusei: 0.5 µg/mL (≈ 0.199 µM)
C. parapsilosis; 24 h
  MIC C. parapsilosis: 0.25 µg/mL (≈ 0.0997 µM)
C. auris; 24 h
  MIC C. auris: 1 µg/mL (≈ 0.399 µM)
C. albicans; 24 h
  MIC C. albicans: 0.5 µg/mL (≈ 0.199 µM)

## N=C(N)NCCC[C@H](NC(=O)[C@@H](CCCNC(=N)N)NC(=O)[C@H](CCCNC(=N)N)NC(=O)[C@@H](CCCNC(=N)N)NC(=O)[C@@H]1CCCN1C(=O)[C@H](CCCNC(=N)N)NC(=O)[C@@H](CCCNC(=N)N)NC(=O)[C@H](CCCNC(=N)N)NC(=O)[C@@H](CCCNC(=N)N)NC(=O)[C@@H]1CCCN1C(=O)[C@@H](CCCNC(=N)N)NC(=O)[C@H](CCCNC(=N)N)NC(=O)[C@@H](CCCNC(=N)N)NC(=O)[C@@H]1CCCN1C(=O)[C@@H](CCCNC(=N)N)NC(=O)[C@H](CCCNC(=N)N)NC(=O)[C@@H](CCCNC(=N)N)NC(=O)Nc1ccc(F)cc1)C(N)=O [SEQ ID NO: 57, 4-FPhNHC(O)NH-rRr-P-rRr-P-rRrR-P-rRrR-NH2] ({NH(4-F-phenyl)-CO}-[dR]R[dR]P[dR]R[dR]P[dR]R[dR]RP[dR]R[dR]R-NH2)
C. glabrata; 24 h
  MIC C. glabrata: 0.5 µg/mL (≈ 0.19 µM)
C. tropicalis; 24 h
  MIC C. tropicalis: 0.5 µg/mL (≈ 0.19 µM)
C. dubliniensis; 24 h
  MIC C. dubliniensis: 0.5 µg/mL (≈ 0.19 µM)
C. krusei; 24 h
  MIC C. krusei: 1 µg/mL (≈ 0.38 µM)
C. parapsilosis; 24 h
  MIC C. parapsilosis: 0.5 µg/mL (≈ 0.19 µM)
C. auris; 24 h
  MIC C. auris: 0.5 µg/mL (≈ 0.19 µM)
C. albicans; 24 h
  MIC C. albicans: 0.5 µg/mL (≈ 0.19 µM)
